Assay results published in patent US7632814B2, “HYD1 peptides as anti-cancer agents” (University of South Florida, priority 2006, dated 2009).
Where no end group is shown, it is not given here. [ ]: non-standard residue; d: D form.

Tests used:
Type in all cases: cell-based
MM1.S cells = system: MM1.S cells
Description: FIGS. 4A-4E are a series of graphs showing that the BMS model protects myeloma MM1.S cells from melphalan (FIG. 4A), mitoxantrone (FIG. 4B), and dexamethasone (FIGS. 4C-4E) induced cell death. SF+A model confers the highest levels of resistance to cell death induced by either mitoxantrone or melphalan.
FIGS. 10A-10E are a series of graphs showing that the BMS model protects MM1.S cells from melphalan (FIG. 10A), mitoxantrone (FIG. 10B), dexamethasone (FIGS. 10C and 10D), and velcade (FIG. 10E) induced cell death.
The CAM-DR phenotype is tested by removing unadhered cells before the addition of drug. […] For this reason, the inventors chose to test for the reversal of drug resistance in adherent cells by using a bone marrow stroma (BMS) model (HS-5 cell line). In the BMS model of drug resistance, cell-cell adhesion is mediated by multiple adhesion moieties and thus the addition of a β1 blocking antibody is not sufficient to block tumor cell adhesion to the BMS cell line. The BMS model system is described in FIGS. 3A-D. These models have facilitated the availability of four discrete hematopoietic tumor populations. The first tumor population (FIG. 3A) is maintained in a traditional suspension culture in RPMI media containing 10% FBS (RM). Conditioned media is prepared by adding fresh RPMI media containing 10% FBS to HS-5 cells which are 75% confluent. After three hours, the media is then collected, centrifuged and stored at −70 for up to one month. This tumor cell culture condition is referred to as CM (FIG. 3B). The third tumor cell population consists of placing HS-5 cells in the bottom chamber and tumor cell in a top chamber that is separated by a membrane allowing for diffusion of soluble factors (see FIG. 3C). This condition is distinct from CM because it considers dynamic soluble interactions between the tumor cell and BMS cells (see FIG. 3D). […] Regardless of the cytotoxic agent used, the levels of drug resistance are greatest for myeloma cells which are adherent to the BMS. […]

ERK = assay: Activation of ERK signaling; settings: for activation of ERK: 10 minutes post-treatment
Method: HYD1, when introduced as a soluble ligand, completely blocks random hapotaxis on laminin 322 and enhanced cellular signals are coupled with the loss of cell motility. […] Using this endpoint as an indicator of HYD1 bioactivity, the truncated and alanine-substituted variants of HYD1 were tested for their ability to activate ERK. Activation of ERK at 10 minutes post-treatment was conserved with alanine-substitution only at the N-terminal lysine and C-terminal glycine (FIG. 16A-1). […] Taken together (FIG. 16C-2), the results (FIGS. 16A-1, 16A-2, 16B, 16C-1) indicate that activation of ERK signaling required ikmviswxx (SEQ ID NO:48).

8226 cells = assay: Detection of apoptosis, annexin V staining and FACS, suspension culture; settings: 24 hours, annexin V
Method: (§1) FIG. 17 is a graph showing that HYD1 induces apoptosis as a single agent in 8226 and H929 cells cultured in suspension. 8226 and H929 cells were either treated with varying concentrations of HYD1 or vehicle control (equal volume sterile double distilled water) for 24 hours and apoptotic cells were detected by FACS analysis of annexin V positive cells. HYD1 specific apoptosis equals cell death due to peptide minus any apoptosis detected in control cells.
Detection of Apoptosis. A flow cytometric assay measuring Annexin V/PI staining was used to measure apoptotic cells following 24 hours of peptide exposure as previously described (Damiano J S et al. Blood, 1999; 93:1658-1667). The assay was performed in triplicate and 3 independent experiments were performed. Caspase 3 and 8 activity was measured at 6 and 24 hrs post peptide treatment per manufactures' instructions (BD Biosciences, San Jose, Calif.). The caspase assays were performed in triplicate and repeated twice.
(§2) Myeloma cells were plated at a density of 400,000 cells per ml in a 24 well plate. Cells were treated with the indicated dose of the peptide for 24 hours. Following 24 hrs of peptide exposure, apoptotic cells were detected using Annexin V staining and FACS analysis. Ten thousand events were analyzed by flow cytometry (Becton Dickinson, San Jose, Calif.). Experiments were performed in triplicate and repeated twice. Shown is a representative figure.

prostate tumor cell = assay: Random haptotaxis (cell migration) on laminin 322 (laminin 5); settings: scrambled peptide HYDS indicates 100% cell migration
Description: Defining the minimal region of HYD1 necessary to potentiate drug-induced apoptosis in suspension and adherent cultures is of interest. Below is a study to determine the minimal HYD1 sequence required to block prostate tumor cell migration. Similar studies as those outlined below and using the same peptide sequences will be used to determine the minimal amino acid sequence required for potentiation of drug induced apoptosis.
This response to the peptide is independent of disrupting adhesion to laminin 322 (laminin 5) since the cells were grown on a ligand before treatment with the peptide. […] All other alanine-substitution mutants resulted cell migration, i.e., a loss of peptide activity.
Using the negative control scrambled peptide, HYDS (SEQ ID NO:44), to indicate 100% cell migration, several truncated peptides including, ikmviswkg (SEQ ID NO:22), kmviswkg (SEQ ID NO:39), and kikmviswk (SEQ ID NO:37) were effective at blocking cell migration by approximately 50%.

H929 cells = assay: Detection of apoptosis, annexin V staining and FACS, suspension culture; settings: H929 cells, 200 μM ZVAD-FMK 30 minutes prior, apoptosis at 24 hours, annexin/PI
Method: as §1
200 μM ZVAD-FMK was added to H929 cells for 30 minutes prior to the addition of either 75 μg/ml HYD1S or 15 μM Melphalan. Apoptosis was measured 24 hours after drug treatment by annexin/PI staining and apoptotic cells were detected by FACS analysis. Three independent experiments were performed and shown is a representative experiment.
Detection of Apoptosis. […] Blood, 1999; 93:1658-1667). The assay was performed in triplicate and 3 independent experiments were performed. Caspase 3 and 8 activity was measured at 6 and 24 hrs post peptide treatment per manufactures' instructions (BD Biosciences, San Jose, Calif.). The caspase assays were performed in triplicate and repeated twice.
as §2

[1] = system: primary myeloma patient specimens; assay: Melphalan-induced cell death in primary myeloma patient specimens, FN-adherent vs suspension
Description: It has been reported that β1-integrin mediated adhesion of 8226 cells and K562 cells to FN blocked cell death induced by the alkylating agent melphalan (Damiano J S, et al. Blood. 1999; 93:1658-1667; Hazlehurst L A, et al. Cancer Res. 2003; 63:7900-7906). In order to determine whether the CAM-DR phenotype is a potential mechanism of clinical de novo drug resistance, melphalan-induced cell death was recently measured in primary myeloma patient specimens (See FIG. 2). Plasma cells were identified by either positive Kappa or Lambda staining, and apoptotic myeloma cells were identified by the Tunnel assay. 9 out of 10 patient specimens were protected from melphalan induced cell death when adherent to FN compared to suspension cultures.

Molecule: O=C1c2c(O)ccc(O)c2C(=O)c2c(NCCNCCO)ccc(NCCNCCO)c21 [mitoxantrone]
- resistance to drug induced cell death conferred by HS-5 stromal layer in the BMS model (MM1.S cells): sufficient to confer resistance

Molecule: kikmv (KIKMV; HYD1 fragment)
- ERK signal of N-terminal region compared with C-terminal region (ERK): stronger signal than iswkg
- activation of ERK (ERK): partial activation of ERK

Molecule: kikmviswk ([dK][dI][dK][dM][dV][dI][dS][dW][dK]) [HYD1-g, C-terminus glycine deleted]
- potency in inducing 8226 cell death compared to HYD1 (8226 cells): increased potency
- potency in inducing 8226 cell death compared to HYD1 (8226 cells; listed as kikmviswk): greater potency
- blocking cell migration (prostate tumor cell): approximately 50%

Molecule: N[C@@H](Cc1ccc(N(CCCl)CCCl)cc1)C(=O)O [melphalan]
- protection from induced cell death by pan caspase inhibitor ZVAD-FMK (H929 cells): blocked the majority
- mean percent apoptosis of plasma cells adhered to FN ([1]; 200 μM melphalan, bone marrow aspirates, adhered to FN prior to treatment): 27.7%
- mean percent apoptosis of plasma cells in suspension cultures ([1]; 200 μM melphalan, suspension cultures): 55.6%
- patient specimens protected from melphalan induced cell death when adherent to FN ([1]; compared to suspension cultures, ten patients): 9 out of 10
- resistance to drug induced cell death conferred by HS-5 stromal layer in the BMS model (MM1.S cells): sufficient to confer resistance

Molecule: CC(C)C[C@H](NC(=O)[C@H](Cc1ccccc1)NC(=O)c1cnccn1)B(O)O [velcade]
- resistance to drug induced cell death conferred by HS-5 stromal layer in the BMS model (MM1.S cells): sufficient to confer resistance

Molecule: iswkg (ISWKG; HYD1 fragment)
- activation of ERK (ERK): partial activation of ERK

Molecule: kmviswkg (KMVISWKG; HYD1 fragment)
- blocking cell migration (prostate tumor cell): approximately 50%

Molecule: ikmviswkg (IKMVISWKG; HYD1 fragment)
- blocking cell migration (prostate tumor cell): approximately 50%
